Measured values reported in patent US20050026847A1, “Methods for treating, preventing, or inhibiting injuries, cell membrane stabilization, and calcium mobilization using pseudopterosin compounds” (priority 2003, published 2005).

Experiments:
T. thermophila = assay: Phagocytosis activity assay (India ink phagosome formation); type: cell-based, Tetrahymena thermophila; settings: for effect on rate of phagosome formation / phagocytic activity: 10 minutes drug/ink exposure, FIGS. 2-4; for effect of Pertussis toxin pretreatment on the compound's effect on phagocytosis: Pertussis toxin pretreatment (5 minutes), FIGS. 5-6
Method: Log-phase T. thermophila cultures were grown in 2% protease peptone, at 25° C. The cells were washed and resuspended in 10 mM HEPES, pH 7.4 (250,000 cells/ml). Test compounds were mixed with diluted India ink (1:25, v:v) in order to visualize the newly formed phagosomes. At t=0, the drug/ink mixture was added to the Tetrahymena cells, and at t=10 minutes, […] samples of cell suspension were removed and fixed in 10% formaldehyde. At least about 100 random cells from each sample were then examined using a light microscope. Phagocytic activity was assessed by calculating the ratio of cells with food vacuoles compared to the cells with no food vacuoles.

[1] = tested on: Heterocapsa pygmaea cells; assay: Injury response assay, physical injury (ultrasound-induced oxidative burst, H2O2 by DCFH-DA); type: cell-based; settings: FIG. 16, read-out: inhibition of oxidative burst in injured cells
Method: The released reactive oxygen species were calibrated to H2O2, the least labile of the group. […] Specifically, by homogenization in a blender with 0.22 μm filtered seawater and 10 mM EDTA, and filtered through 4 layers of cheesecloth. Algal symbionts were pelleted out by centrifugation at 250×g and subsequently washed 10 times with 40 ml clean filtered seawater and pelleted by centrifugation at 750×g. The cells were further purified on Percoll® (Sigma, St. […] DNA staining using DAPI detected on epifluorescence microscopy was used to detect contaminants due to bacterial or coral cells. Cells isolated from live coral were diluted to a final concentration of about 5×10^5 cells/ml using a hemocytometer and maintained in filtered seawater. Heterocapsa pygmaea is grown in culture in F-1 media without silica. The cells were harvested in log growth phase and diluted to about 5×10^5 cells/ml using a hemocytometer. […] H2O2 concentration was calculated from a standard curve from DCFH-DA fluorescence (0.05 mM, redox sensitive probe, requires esterase (82 U) for detection of H2O2). Fluoresence was measured using a Perkin Elmer LS50B Fluorimeter, excitation 488 nm and emission 525 nm.

Tetrahymena cells = assay: Ca++ signaling assay (Calcium Orange fluorescence, intracellular calcium release); type: cell-based, Tetrahymena thermophila; settings: for effect of Pertussis toxin pretreatment on the compound's calcium release activity: 0.5 μg/ml Pertussis toxin for 5 minutes prior to treatment
Method: Cell density was adjusted to 500,000 cells/ml using a 10 mM HEPES and 2.5 mM Probenecid buffer (pH 7.4) (Sigma, St. Louis, Mo.). The cells were loaded with 3 μM Calcium Orange AM ester (Molecular Probes, Eugene, Oreg.) for 90 minutes in the dark. The cells were washed, resuspended in buffer, and incubated for 1 hour to allow de-esterification of the fluorescent probe. The cells were washed twice and placed in a 2 ml quartz cuvet. Calcium release was measured by an LS50B Perkin Elmer Fluorimeter (Ex=549, Em=576) (Perkin Elmer, Wellesley, Mass.) for a 20 minute period. The cells were exposed to the test compounds for 20 minutes and then the fluorescence was recorded. In some experiments, the cells were pretreated with 0.5 μg/ml Pertussis toxin for 5 minutes. FIGS. 7A-7C show Tetrahymena cells loaded with Calcium Orange under fluorescence microscopy (X400). Upon calcium binding to calcium orange, the intensity increases thereby indicating the release of intracellular calcium. FIG. 7A is a control.

[2] = Cell-free hydrogen peroxide scavenging (direct antioxidant) assay; settings: 50 μM
Method: A mixture of hydrogen peroxide and water without cells was mixed with the DCFH-DA dye and 82U of esterase as described above. To this mixture the drugs were added and results monitored on the fluorimeter.

H. pygmaea cells = assay: Injury response assay, chemical injury (mastoparan-induced oxidative burst); type: cell-based, Heterocapsa pygmaea; settings: 10 μM, FIG. 14
Method: (§1) To determine the protective effect of pseudopterosin compounds against chemical injury, mastoparan was administered to test cells and released reactive oxygen species calibrated to H2O2 was measured as an indicator of injury.
(§2) Symbiodinium spp. cells were isolated, prepared and identified as described in Example 3. Heterocapsa pygmaea was grown in culture in F-1 media without silica. The cells were harvested in log growth phase and diluted to about 5×10^5 cells/ml using a hemocytometer. […] The oxidative burst was prevented or inhibited by about 71% by incubating the H. pygmaea cells with a mixture comprising 25 μM of pseudopterosin compounds for 1 hour prior to exposure to mastoparan.
(§3) H2O2 concentration was calculated from a standard curve from DCFH-DA fluorescence (0.05 mM, redox sensitive probe, requires esterase (82 U) for detection of H2O2). Fluorescence was measured using a Perkin Elmer LS50B Fluorimeter, excitation 488 nm and emission 525 nm.

Symbiodinium spp. cells = assay: Injury response assay, chemical injury (mastoparan) in Symbiodinium; type: cell-based; settings: 10 μM, FIG. 14
Method: as §1, §2, §3

[Ca+2].[Cl-].[Cl-] [CaCl2]
effect on rate of phagosome formation / phagocytic activity (T. thermophila): increases the rate of phagocytic activity

c1ccc2c(c1)[I+]c1ccccc1-2 [DPI, Diphenylene iodonium chloride]
inhibition at 50 µM [1]: ~96%

CC(C)=C[C@H]1C[C@H](C)[C@H]2CC[C@H](C)c3c(O[C@@H]4OC[C@@H](O)[C@H](O)[C@H]4O)c(O)c(C)c1c32 [PsA, Pseudopterosin A]
effect of Pertussis toxin pretreatment on the compound's calcium release activity (Tetrahymena cells): Pertussis toxin blocks PsA activity
effect of mastoparan on PsA activity (Tetrahymena cells; FIG. 10A): Mastoparan does not inhibit PsA
effect of Verapamil or Gd3+ on the effects of PsA (intracellular calcium release and phagosome formation) (Tetrahymena cells; T. thermophila): not inhibited by Verapamil or Gd^3+
effect of suramin pretreatment on PsA activity (Tetrahymena cells; suramin pretreatment (5 minutes), FIG. 10B): blocks PsA activity
effect on rate of phagosome formation / phagocytic activity (T. thermophila): decreases the rate of phagosome formation in a dose dependent manner
effect of Pertussis toxin pretreatment on the compound's effect on phagocytosis (T. thermophila): completely blocks the effect of PsA on phagocytosis

COc1ccc2c(c1)CC[C@@H]1[C@@H]2CC[C@]2(C)[C@@H](NCCCCCCN3C(=O)C=CC3=O)CC[C@@H]12 [Pseudopterosin U73122]
effect of Pertussis toxin pretreatment on the compound's calcium release activity (Tetrahymena cells): Pertussis toxin does not inhibit U73122 activity
effect of Pertussis toxin pretreatment on the compound's effect on phagocytosis (T. thermophila): not blocked by Pertussis toxin pretreatment

O=C1O[C@H]([C@@H](O)CO)C(O)=C1O [ascorbic acid]
immediate reduction of the fluorescent signal in cell free system [2]: about 60%

mastoparan
effect of Pertussis toxin pretreatment on the compound's calcium release activity (Tetrahymena cells): inhibits the effects of mastoparan
effect of mastoparan on oxidative burst in H. pygmaea (H. pygmaea cells): cause a large oxidative burst
effect of mastoparan on Symbiodinium spp. cells (Symbiodinium spp. cells): no effect
